Reference: ChEMBL document CHEMBL5029183 (J Med Chem, 2021)
pIC50, pKi: −log10 of the molar value. Active and inactive are the calls of the source.

Legend:
Mu-type opioid receptor = Mu-type opioid receptor (Rattus norvegicus, UniProt P33535); assay: Displacement of [3H]DAMGO from MOR in Wistar rat brain membranes measured after 1 hr by scintillation counting method; type: cell membranes, Membrane
Rattus norvegicus = species: Rattus norvegicus; assay: Selectivity index, ratio of Ki for displacement of [3H]DPDPE from DOR in Wistar rat brain membranes to Ki for displacement of [3H]DAMGO from MOR in Wistar rat brain membranes; type: cell membranes
Ileum = assay: Inhibition of electric-field induced guinea pig ileum contraction; type: functional, tissue-based; conditions: Cavia porcellus
[1] = biological target: Delta-type opioid receptor (Homo sapiens) (UniProt P41143); assay: Agonist activity at delta-opioid receptor (unknown origin) expressed in HEK293 cells assessed as inhibition of forskolin-induced cAMP accumulation incubated for 15 mins by ELISA; type: functional, cell-based
[2] = biological target: Kappa-type opioid receptor (Homo sapiens) (UniProt P41145); assay: Agonist activity at kappa-opioid receptor (unknown origin) expressed in HEK293 cells assessed as inhibition of forskolin-induced cAMP accumulation incubated for 15 mins by ELISA; type: functional, cell-based
[3] = Metabolic stability in Kunming mouse brain assessed as half life measured upto 480 mins by RP-HPLC analysis; type: ADME, tissue-based
[4] = Metabolic stability in Kunming mouse serum assessed as half life measured upto 480 mins by RP-HPLC analysis; type: ADME, cell-free
Mus musculus [5] = assay: Antinociceptive activity in icv dosed Kunming mouse model assessed as increase in paw withdrawal latency by radiant heat paw withdrawal assay; type: functional; conditions: dose 0.67-20 nmol
Mus musculus [6] = assay: Antinociceptive activity in Kunming mouse model assessed as increase in paw withdrawal latency at 0.67 to 20 nmol, icv by radiant heat paw withdrawal assay; type: functional, organism-based; conditions: dose 0.67-20 nmol, TDE = time-dependent effect
Mus musculus [7] = assay: Antinociceptive activity in Kunming mouse model assessed as increase in paw withdrawal latency at 0.67 to 20 nmol, icv measured after 10 mins by radiant heat paw withdrawal assay; type: functional, organism-based; conditions: dose 0.67-20 nmol
Mus musculus [8] = assay: Antinociceptive activity in Kunming mouse model assessed as increase in paw withdrawal latency at 0.67 to 20 nmol, icv measured upto 50 mins by radiant heat paw withdrawal assay; type: functional, organism-based; conditions: dose 0.67-20 nmol, time min <=50
Mus musculus [9] = assay: Antinociceptive activity in Kunming mouse model assessed as increase in paw withdrawal latency at 20 nmol, icv pretreated for 10 mins with naloxone followed by compound addition and measured upto 10 mins by radiant heat paw withdrawal assay; type: functional, organism-based; conditions: time min <=10
Mus musculus [10] = assay: Antinociceptive activity in Kunming mouse model assessed as increase in paw withdrawal latency at 20 nmol, icv pretreated for 20 mins with naloxonazine followed by compound addition and measured upto 10 mins by radiant heat paw withdrawal assay; type: functional, organism-based; conditions: time min <=10
Mus musculus [11] = assay: Antinociceptive activity in Kunming mouse model assessed as increase in paw withdrawal latency at 20 nmol, icv pretreated for 30 mins with nor-BNI followed by compound addition and measured upto 10 mins by radiant heat paw withdrawal assay; type: functional, organism-based; conditions: time min <=10
Mus musculus [12] = assay: Antinociceptive activity in Kunming mouse model assessed as increase in paw withdrawal latency at 10 micromol/kg, sc by radiant heat paw withdrawal assay; type: functional, organism-based; conditions: dose 10.0 µmol/kg
Mus musculus [13] = assay: Antinociceptive activity in Kunming mouse model assessed as increase in paw withdrawal latency at 10 micromol/kg, sc at 10 to 90 mins by radiant heat paw withdrawal assay; type: functional, organism-based; conditions: dose 10.0 µmol/kg, time 10-90 min
Mus musculus [14] = assay: Antinociceptive activity in Kunming mouse model assessed as maximum possible effect at 10 micromol/kg, sc by radiant heat paw withdrawal assay; type: functional; conditions: dose 10 µmol/kg
Mus musculus [15] = assay: Antinociceptive activity in Kunming mouse model assessed as increase in paw withdrawal latency at 10 micromol/kg, sc pretreated with sc dosed naloxone for 5 mins followed by compound addition by radiant heat paw withdrawal assay; type: functional, organism-based; conditions: dose 10.0 µmol/kg
Mus musculus [16] = assay: Antinociceptive activity in Kunming mouse model assessed as increase in paw withdrawal latency at 10 micromol/kg, sc pretreated with sc dosed naloxone methiodide for 5 mins followed by compound addition by radiant heat paw withdrawal assay; type: functional, organism-based; conditions: dose 10.0 µmol/kg
Mus musculus [17] = assay: Antiallodynic activity in Kunming mouse model of spared nerve injury-induced neuropathic pain assessed as increase in paw withdrawal threshold at 0.67 to 6.7 nmol, icv by von Frey test; type: functional, organism-based; conditions: dose 0.67-6.7 nmol, time min <=50, TDE = time-dependent effect
Mus musculus [18] = assay: Antiallodynic activity in Kunming mouse model of spared nerve injury-induced neuropathic pain assessed as increase in paw withdrawal threshold at 0.67 to 6.7 nmol, icv at 10 mins by von Frey test; type: functional, organism-based; conditions: dose 0.67-6.7 nmol
Mus musculus [19] = assay: Antiallodynic activity in Kunming mouse model of spared nerve injury-induced neuropathic pain assessed as increase in paw withdrawal threshold at 0.67 to 6.7 nmol, icv after 50 mins by von Frey test; type: functional, organism-based; conditions: dose 0.67-6.7 nmol
Mus musculus [20] = assay: Antiallodynic activity in Kunming mouse model of spared nerve injury-induced neuropathic pain assessed as increase in paw withdrawal threshold at 10 micromol/kg, sc measured at 10 to 50 mins by von Frey test; type: functional, organism-based; conditions: dose 10.0 µmol/kg, time 10-50 min
Mus musculus [21] = assay: Antiallodynic activity in icv dosed Kunming mouse model of CFA-induced inflammatory pain assessed as increase in ipsilateral withdrawal threshold measured upto 50 mins by von Frey test; type: functional, organism-based; conditions: dose 0.67-6.7 nmol, time min <=50
Mus musculus [22] = assay: Antiallodynic activity in Kunming mouse model of CFA-induced inflammatory pain assessed as increase in ipsilateral withdrawal threshold at 0.67 to 6.7 nmol, icv by von Frey test; type: functional, organism-based; conditions: dose 0.67-6.7 nmol, time 10-50 min, TDE = time-dependent effect
Mus musculus [23] = assay: Antiallodynic activity in Kunming mouse model of CFA-induced inflammatory pain assessed as increase in ipsilateral withdrawal threshold at 10 micromol/kg, sc measured at 10 to 50 mins by von Frey test; type: functional, organism-based; conditions: dose 10.0 µmol/kg, time 10-50 min
Mus musculus [24] = species: Mus musculus; assay: Antinociceptive tolerance in Kunming mouse pretreated with 3 times ED50 of compound for 2 hrs followed by challenge with second dose of compound by radiant heat paw withdrawal test; type: functional
Mus musculus [25] = species: Mus musculus; assay: Tolerance ratio of ED50 for Kunming mouse pretreated with 3 times ED50 of compound for 2 hrs followed by challenge with second dose of compound to ED50 for Kunming mouse pretreated with saline for 2 hrs followed by compound addition; type: functional
Mus musculus [26] = assay: Antinociceptive tolerance in Kunming mouse pretreated with compound for 3 hrs followed by challenge with second dose of compound at 20 nmol, icv and measured after 1 to 1.5 hrs by radiant heat paw withdrawal test; type: functional, organism-based; conditions: time 4-4.5 hrs
Mus musculus [27] = assay: Antinociceptive tolerance in Kunming mouse pretreated with compound for 3 hrs followed by challenge with second dose of compound at 20 nmol, icv and measured after 2 to 2.5 hrs by radiant heat paw withdrawal test; type: functional, organism-based; conditions: time lower 5.0 hrs, time upper […]
Mus musculus [28] = assay: Chronic antinociceptive tolerance in Kunming mouse pretreated with compound followed by repeated compound addition at 10 micromol/kg, sc once daily for 7 days and measured after 10 mins by radiant heat paw withdrawal test; type: functional, organism-based; conditions: dose 10.0 µmol/kg, time 7.0 day
[29] = Toxicity in icv dosed Kunming mouse assessed as inhibition of gastrointestinal transit by measuring charcoal distance travel by charcoal meal test; type: organism-based; conditions: in vivo, icv_or_intrathecal, dose 0.67-6.7 nmol
[30] = Toxicity in Kunming mouse model assessed as conditioned place preference time at 20 nmol, icv; conditions: in vivo, icv_or_intrathecal
[31] = Toxicity in Kunming mouse assessed as effect on motor coordination at 20 nmol, icv by rotarod test; conditions: in vivo, icv_or_intrathecal
[32] = Toxicity in Kunming mouse assessed as effect on motor coordination at 10 micromol/kg, sc by rotarod test; type: organism-based; conditions: in vivo, dose 10 µmol/kg

Chain of Kappa-type opioid receptor (Homo sapiens) (P41145 whole entry): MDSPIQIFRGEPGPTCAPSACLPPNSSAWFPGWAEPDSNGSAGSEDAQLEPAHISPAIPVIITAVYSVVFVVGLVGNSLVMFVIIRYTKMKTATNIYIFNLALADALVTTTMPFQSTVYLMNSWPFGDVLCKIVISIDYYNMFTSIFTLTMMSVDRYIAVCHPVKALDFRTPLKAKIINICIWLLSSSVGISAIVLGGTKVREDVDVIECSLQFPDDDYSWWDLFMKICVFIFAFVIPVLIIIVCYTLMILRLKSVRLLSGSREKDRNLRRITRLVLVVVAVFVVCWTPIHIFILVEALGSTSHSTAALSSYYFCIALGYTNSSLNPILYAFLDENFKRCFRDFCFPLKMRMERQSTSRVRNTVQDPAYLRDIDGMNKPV
Chain of Delta-type opioid receptor (Homo sapiens) (P41143 whole entry): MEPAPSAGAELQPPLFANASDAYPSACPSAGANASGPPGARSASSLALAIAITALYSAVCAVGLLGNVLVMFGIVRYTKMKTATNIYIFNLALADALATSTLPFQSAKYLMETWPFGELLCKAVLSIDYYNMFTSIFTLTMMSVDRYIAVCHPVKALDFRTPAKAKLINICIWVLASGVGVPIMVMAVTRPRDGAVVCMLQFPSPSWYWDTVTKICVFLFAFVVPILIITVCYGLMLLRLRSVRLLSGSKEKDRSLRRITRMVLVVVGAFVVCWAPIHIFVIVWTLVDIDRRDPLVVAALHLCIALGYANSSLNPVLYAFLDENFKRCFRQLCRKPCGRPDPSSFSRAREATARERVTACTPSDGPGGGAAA
Chain of Mu-type opioid receptor (P33535 whole entry): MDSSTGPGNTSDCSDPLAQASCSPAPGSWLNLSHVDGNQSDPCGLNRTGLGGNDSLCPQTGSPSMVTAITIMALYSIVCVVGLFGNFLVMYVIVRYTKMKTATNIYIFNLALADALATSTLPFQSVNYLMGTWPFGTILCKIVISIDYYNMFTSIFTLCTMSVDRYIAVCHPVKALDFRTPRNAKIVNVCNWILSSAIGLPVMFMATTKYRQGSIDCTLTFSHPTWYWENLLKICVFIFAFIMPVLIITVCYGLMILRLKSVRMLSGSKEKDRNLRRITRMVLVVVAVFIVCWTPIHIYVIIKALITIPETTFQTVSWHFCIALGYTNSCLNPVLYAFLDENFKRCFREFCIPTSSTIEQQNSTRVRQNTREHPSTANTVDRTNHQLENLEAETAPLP

Structure (SMILES): Cc1cc(O)cc(C)c1C[C@H](N)C(=O)N[C@H]1CSSC[C@@H](C(=O)NCC(=O)N[C@H](CCCNC(=N)N)C(=O)N[C@H](CCCNC(=N)N)C(=O)O)NC(=O)[C@H](Cc2ccc(Cl)cc2)NC(=O)[C@H](Cc2ccccc2)NC1=O
- pKi (Mu-type opioid receptor): 8.22
- Ratio Ki (Rattus norvegicus): 705
- pIC50 (Ileum): 7.93
- Activity [1]: inactive
- Activity [2]: inactive
- half-life [3]: 7.13 h
- half-life [4]: 5.33 h
- Activity (Mus musculus [5]): Dose-Dependent Effect
- ED50 (Mus musculus [5]): 2.3 nmol
- Activity (Mus musculus [6]): Tde
- Activity (Mus musculus [7]): Active
- Activity (Mus musculus [8]): Active
- Activity (Mus musculus [9]): inactive
- Activity (Mus musculus [10]): inactive
- Activity (Mus musculus [11]): inactive
- Activity (Mus musculus [12]): Active
- Activity (Mus musculus [13]): Active
- MPE (Mus musculus [14]): 75.33%
- Activity (Mus musculus [15]): inactive
- Activity (Mus musculus [16]): Active
- Activity (Mus musculus [17]): Tde
- Activity (Mus musculus [18]): Active
- Activity (Mus musculus [19]): inactive
- Activity (Mus musculus [20]): Active
- Activity (Mus musculus [21]): Dose-Dependent Effect
- Activity (Mus musculus [22]): Tde
- Activity (Mus musculus [23]): Active
- ED50 (Mus musculus [24]): 3.5 nmol
- Ratio (Mus musculus [25]): 1.5
- Activity (Mus musculus [26]): inactive
- Activity (Mus musculus [27]): Active
- Activity (Mus musculus [28]): inactive
- Activity [29]: Dose-Dependent Effect
- Time [30]: 450 s
- Activity [31]: Non-Toxic
- Activity [32]: Non-Toxic

Structure (SMILES): Cc1cc(O)cc(C)c1C[C@H](N)C(=O)N[C@H]1CSSC[C@@H](C(=O)NCC(=O)N[C@H](CCCNC(=N)N)C(=O)N[C@H](CCCNC(=N)N)C(=O)O)NC(=O)[C@H](Cc2ccc(Cl)cc2)NC(=O)[C@H](Cc2c[nH]c3ccccc23)NC1=O
- pKi (Mu-type opioid receptor): 8.24
- Ratio Ki (Rattus norvegicus): 361
- pIC50 (Ileum): 8.04
- Activity [1]: inactive
- Activity [2]: inactive
- half-life [3]: 7.48 h
- half-life [4]: 5.58 h
- Activity (Mus musculus [5]): Dose-Dependent Effect
- ED50 (Mus musculus [5]): 2.1 nmol
- Activity (Mus musculus [6]): Tde
- Activity (Mus musculus [7]): Active
- Activity (Mus musculus [8]): Active
- Activity (Mus musculus [9]): inactive
- Activity (Mus musculus [10]): Active
- Activity (Mus musculus [11]): Active
- Activity (Mus musculus [12]): Active
- Activity (Mus musculus [13]): Active
- MPE (Mus musculus [14]): 79.76%
- Activity (Mus musculus [15]): inactive
- Activity (Mus musculus [16]): Active
- Activity (Mus musculus [17]): Tde
- Activity (Mus musculus [18]): Active
- Activity (Mus musculus [19]): inactive
- Activity (Mus musculus [20]): Active
- Activity (Mus musculus [21]): Dose-Dependent Effect
- Activity (Mus musculus [22]): Tde
- Activity (Mus musculus [23]): Active
- ED50 (Mus musculus [24]): 2.7 nmol
- Ratio (Mus musculus [25]): 1.2
- Activity (Mus musculus [26]): inactive
- Activity (Mus musculus [27]): Active
- Activity (Mus musculus [28]): inactive
- Activity [29]: Dose-Dependent Effect
- Time [30]: 447 s
- Activity [31]: Non-Toxic
- Activity [32]: Non-Toxic
